Assay results taken from patent US9351982B2, “Krill oil and reacted astaxanthin composition and associated method” (U.S. Nutraceuticals, LLC, priority 2009, dated 2016).

Tests used:
[1] = Stability of carotenoids blended with krill oil, UV analysis; type: physicochemical
Text: Testing has determined that astaxanthin added to krill oil results in an unstable product with respect to recoverable astaxanthin by HPLC analysis. A chemical reaction most likely takes place between krill oil and at least astaxanthin in such mixtures. […] Had UV alone been used to determine product stability the decrease in recoverable astaxanthin over time would not have been observed. The test results, tables and charts of FIGS. 2-6 show the decrease in recoverable astaxanthin over time.
FIG. 2 is a chart showing data of astaxanthin at 13 days post formulation reacting with krill oil, but essentially neither lutein nor zeaxanthin. Astaxanthin is a keto-alcohol while lutein and zeaxanthin are alcohols and this can possibly make some difference. It should also be understood that the krill oil and “reacted” carotenoids, such as astaxanthin, and possibly zeaxanthin and lutein, lose their ability to be recovered over time from the mixture but can still be quantitated by ultraviolet (UV) analysis. For example, the chromophores of the carotenoids are not destroyed when the reaction takes place over time and can be used to develop a number of products useful for cardiovascular applications, joint health care applications, eye care and other diseases.
Referring now to the chart in FIG. 2, there are shown various samples and explanation. […]

[2] = eight weeks of supplementation at 6 mg per day; cited from earlier work
[3] = system: LDL cholesterol oxidation; settings: cited from earlier work
[4] = system: lens epithelial cells; settings: in vitro, at umol/L concentrations; cited from earlier work
[5] = cited from earlier work
[6] = system: C-Reactive Protein (C-RP); settings: cited from earlier work
[7] = system: pro-oxidant activity of Vioxx; settings: in vitro; cited from earlier work
[8] = system: lipid peroxidation; settings: relative to alpha-tocopherol; in vitro and in vivo studies; cited from earlier work
[9] = cited from earlier work; remark: listed apart in the source

UV quantification of the amount of astaxanthin added to blended product [1]: ~100%
Structure (SMILES): CC1=C(/C=C/C(C)=C/C=C/C(C)=C/C=C/C=C(C)/C=C/C=C(C)/C=C/C2=C(C)C(=O)[C@@H](O)CC2(C)C)C(C)(C)C[C@H](O)C1=O [astaxanthin]
negative effect in healthy adults [2]: no negative effect | protection of LDL cholesterol against induced in vitro oxidation ([3]; 3.6 mg per day for two weeks): protects LDL cholesterol against induced in vitro oxidation | reduction of LDL cholesterol oxidation ([3]; 4 mg per day for two weeks): 26% | suppression of UVB induced lipid per-oxidative mediated cell damage [4]: suppresses UVB induced lipid per-oxidative mediated cell damage | potency in scavenging oxygen free radicals, times more potent than alpha-tocopherol ([5]; relative to alpha-tocopherol): 14 times | potency in scavenging oxygen free radicals, times more potent than ascorbic acid (Vitamin C) ([5]; relative to ascorbic acid): 65 times | potency in scavenging oxygen free radicals, times more potent than beta-carotene ([5]; relative to beta-carotene): 54 times | decrease in C-reactive protein scores ([6]; 4 mg for eight weeks): 21% | drop in serum C-RP levels ([6]; human subjects with high risk levels of C-RP, three months of treatment): 43% | negation of pro-oxidant activity of Vioxx [7]: negate the pro-oxidant activity of Vioxx | mean effective concentration which inhibits lipid peroxidation, times lower than that of alpha-tocopherol [8]: 500 times | potency in quenching singlet oxygen, times more potent than alpha-tocopherol ([9]; relative to alpha-tocopherol): 550 times | potency in quenching singlet oxygen, times more potent than beta-carotene ([9]; relative to beta-carotene): 11 times | potency in quenching singlet oxygen, times more potent than lutein ([9]; relative to lutein): 27.5 times
